Measured values reported in the supplement of paper PMC13380429.

What was measured:
[1] = test system: A549-ACE2 infected with SARS-CoV-2; experiment: cell count relative to DMSO; higher = less toxic; details: 24 h
Caco-2 [2] = experiment: cell viability relative to DMSO; higher = less toxic; details: 72 h
Calu-3 [3] = experiment: as above; details: 72 h
HepG2 [4] = experiment: as above; details: 72 h
U2OS [5] = experiment: as above; details: 72 h
Vero E6 [6] = experiment: as above; details: 72 h
[7] = test system: A549-ACE2 infected with SARS-CoV-2; experiment: SARS-CoV-2 infection rate relative to DMSO; higher = more infection; details: 24 h
A549-ACE2 [8] = experiment: phospholipidosis EC50; higher = less potent phospholipidosis inducer
A549-ACE2 [9] = experiment: drug-induced phospholipidosis relative to tamoxifen; higher = more phospholipidosis
[10] = test system: A549-ACE2 infected with SARS-CoV-2; experiment: morphology score (similarity to uninfected cells); higher = more like uninfected cells; details: 24 h
Calu-3 [11] = experiment: relative viability EC50 (midpoint between 100% and the lowest measured viability); higher = less toxic; details: 72 h
HepG2 [12] = experiment: as above; details: 72 h
U2OS [13] = experiment: as above; details: 72 h
Caco-2 [14] = experiment: drug sensitivity score (DSS) for viability; higher = more toxic; extreme values may be limits of the assay; details: 72 h
Calu-3 [15] = experiment: as above; details: 72 h
HepG2 [16] = experiment: as above; details: 72 h
U2OS [17] = experiment: as above; details: 72 h
Vero E6 [18] = experiment: as above; details: 72 h

CCN(CC)CCCCN1c2ccccc2Oc2ccc(Cl)cc21 [10-DEBC]
Details | SARS-CoV-2 infection rate [%] | cell count [%] | cell viability [%] | morphology score | phospholipidosis EC50 [µM]
A549-ACE2 [8], 24 h | – | – | – | – | 3.06
A549-ACE2 [8], 48 h | – | – | – | – | 3.97
A549-ACE2 [8], 72 h | – | – | – | – | 4.34
Caco-2 [2], 1 nM | – | – | 93.2 | – | –
Caco-2 [2], 10 nM | – | – | 99.6 | – | –
Caco-2 [2], 100 nM | – | – | 100 | – | –
Caco-2 [2], 1000 nM | – | – | 102 | – | –
Caco-2 [2], 10000 nM | – | – | 66.1 | – | –
Calu-3 [3], 1 nM | – | – | 112 | – | –
Calu-3 [3], 10 nM | – | – | 105 | – | –
Calu-3 [3], 100 nM | – | – | 110 | – | –
Calu-3 [3], 1000 nM | – | – | 103 | – | –
Calu-3 [3], 10000 nM | – | – | 39 | – | –
HepG2 [4], 1 nM | – | – | 90.3 | – | –
HepG2 [4], 10 nM | – | – | 103 | – | –
HepG2 [4], 100 nM | – | – | 87.4 | – | –
HepG2 [4], 1000 nM | – | – | 88.7 | – | –
HepG2 [4], 10000 nM | – | – | 45.3 | – | –
U2OS [5], 1 nM | – | – | 100 | – | –
U2OS [5], 10 nM | – | – | 96.4 | – | –
U2OS [5], 100 nM | – | – | 94.7 | – | –
U2OS [5], 1000 nM | – | – | 93.3 | – | –
U2OS [5], 10000 nM | – | – | 80.1 | – | –
Vero E6 [6], 1 nM | – | – | 99.5 | – | –
Vero E6 [6], 10 nM | – | – | 97.4 | – | –
Vero E6 [6], 100 nM | – | – | 93.7 | – | –
Vero E6 [6], 1000 nM | – | – | 92.6 | – | –
Vero E6 [6], 10000 nM | – | – | 63 | – | –
[1], 0.1 µM | – | 107 | – | – | –
[1], 0.3 µM | – | 103 | – | – | –
[1], 1 µM | – | 107 | – | – | –
[1], 3 µM | – | 127 | – | – | –
[7], 0.1 µM | 109 | – | – | – | –
[7], 0.3 µM | 87 | – | – | – | –
[7], 1 µM | 76 | – | – | – | –
[7], 3 µM | 55 | – | – | – | –
[10], 0.1 µM | – | – | – | -0.05 | –
[10], 0.3 µM | – | – | – | 0.39 | –
[10], 1 µM | – | – | – | 0.55 | –
[10], 3 µM | – | – | – | 0.9 | –

drug-induced phospholipidosis [%], A549-ACE2 [9]
Details | 0.3 µM | 0.833333 µM | 3.33333 µM | 6.66667 µM | 10 µM
24 h | 0.51 | 1.58 | 47.7 | 76.9 | 81.2
48 h | 1.97 | 2.56 | 41 | 88.5 | 101
72 h | 2.46 | 1.09 | 30.1 | 85.5 | 98.7

Details | drug sensitivity score | relative viability EC50 [µM]
Caco-2 [14] | 1.4 | –
Calu-3 [11] | – | 3.43
Calu-3 [15] | 3.1 | –
HepG2 [12] | – | 1.76
HepG2 [16] | 4.7 | –
U2OS [13] | – | > 10
U2OS [17] | 0.8 | –
Vero E6 [18] | 3 | –

CN1CCC[C@@H](CC2c3ccccc3Sc3ccccc32)C1 (racemic) [metixene]
Details | SARS-CoV-2 infection rate [%] | cell count [%] | cell viability [%] | morphology score | phospholipidosis EC50 [µM]
A549-ACE2 [8], 24 h | – | – | – | – | 5.44
A549-ACE2 [8], 48 h | – | – | – | – | 9.46
A549-ACE2 [8], 72 h | – | – | – | – | 4.98
Caco-2 [2], 1 nM | – | – | 85.9 | – | –
Caco-2 [2], 10 nM | – | – | 94.5 | – | –
Caco-2 [2], 100 nM | – | – | 94.7 | – | –
Caco-2 [2], 1000 nM | – | – | 120 | – | –
Caco-2 [2], 10000 nM | – | – | 71.9 | – | –
Calu-3 [3], 1 nM | – | – | 102 | – | –
Calu-3 [3], 10 nM | – | – | 100 | – | –
Calu-3 [3], 100 nM | – | – | 100 | – | –
Calu-3 [3], 1000 nM | – | – | 100 | – | –
Calu-3 [3], 10000 nM | – | – | 73.1 | – | –
HepG2 [4], 1 nM | – | – | 104 | – | –
HepG2 [4], 10 nM | – | – | 104 | – | –
HepG2 [4], 100 nM | – | – | 105 | – | –
HepG2 [4], 1000 nM | – | – | 101 | – | –
HepG2 [4], 10000 nM | – | – | 72.3 | – | –
U2OS [5], 1 nM | – | – | 105 | – | –
U2OS [5], 10 nM | – | – | 95.3 | – | –
U2OS [5], 100 nM | – | – | 99.4 | – | –
U2OS [5], 1000 nM | – | – | 93.2 | – | –
U2OS [5], 10000 nM | – | – | 89.8 | – | –
Vero E6 [6], 1 nM | – | – | 96.6 | – | –
Vero E6 [6], 10 nM | – | – | 109 | – | –
Vero E6 [6], 100 nM | – | – | 105 | – | –
Vero E6 [6], 1000 nM | – | – | 101 | – | –
Vero E6 [6], 10000 nM | – | – | 74 | – | –
[1], 0.1 µM | – | 106 | – | – | –
[1], 0.3 µM | – | 99 | – | – | –
[1], 1 µM | – | 110 | – | – | –
[1], 3 µM | – | 129 | – | – | –
[7], 0.1 µM | 94 | – | – | – | –
[7], 0.3 µM | 103 | – | – | – | –
[7], 1 µM | 65 | – | – | – | –
[7], 3 µM | 30 | – | – | – | –
[10], 0.1 µM | – | – | – | 0.09 | –
[10], 0.3 µM | – | – | – | -0.03 | –
[10], 1 µM | – | – | – | 0.65 | –
[10], 3 µM | – | – | – | 0.88 | –

drug-induced phospholipidosis [%], A549-ACE2 [9]
Details | 0.3 µM | 0.833333 µM | 3.33333 µM | 6.66667 µM | 10 µM | 30 µM
24 h | 0.41 | 9.1 | 52.9 | 78.2 | 91.4 | 121
48 h | 4.61 | 5.46 | 39.9 | 75.4 | 93.7 | 145
72 h | 4.08 | 3.27 | 28.5 | 66.5 | 82.7 | –

Details | drug sensitivity score | relative viability EC50 [µM]
Caco-2 [14] | 0.6 | –
Calu-3 [15] | 1.1 | –
HepG2 [16] | 1.1 | –
U2OS [13] | – | > 10
U2OS [17] | 0 | –
Vero E6 [18] | 0.9 | –
